Assay results taken from patent publication US11136291B2, “Antifungal compounds and uses thereof” (Dana-Farber Cancer Institute, Inc., priority 2016, dated 2021).
Values after ≈ are worked out from the molar mass of the structure shown. “Also recorded” adds a separate entry of the source.

How the values were obtained:
Candida krusei DSY471 = assay: Broth dilution MIC; conditions: Pichia kudriavzevii, ATCC6258
Protocol: (§1) Antifungal susceptibility testing was carried out using broth dilution assays which examined effects of two-fold dilutions of compounds on cellular growth. The minimum inhibitory concentration (MIC) was defined as the drug concentration at which the optical density was equal to or decreased more than 50% from that of the drug-free culture.

Candida glabrata DSY562 = assay: Broth dilution MIC; conditions: Nakaseomyces glabratus
Protocol: as §1

[1] = tested on: C. glabrata adherence to CHO-Lec2 cells; assay: Yeast adherence to epithelial CHO-Lec2 cells; conditions: PDR1^L280F mutant; 30 μM iKIX1 or 40 μM ketoconazole

N#CCC(=O)NNC(=S)Nc1ccc(Cl)c(Cl)c1 [iKIX1, 2-(2-Cyanoacetyl)-N-(3,4-dichlorophenyl)hydrazinecarbothioamide]
MIC (Candida krusei DSY471): 6.25 µM (≈ 1.89 µg/mL)
MIC (Candida glabrata DSY562): 12.5 µM (≈ 3.79 µg/mL)
relative adherence to epithelial cells [1]: reduce adherence; also recorded: reduced adherence to levels similar to a PDR1 wild-type strain
